US4436918A, “Method for production of peptide, and its intermediate” (Takeda Chemical Industries, Ltd., priority 1981, dated 1984)
Values after ≈ are worked out from the molar mass of the structure shown.

Key:
Experiment in all cases: Antibacterial activity, agar dilution method (MIC)
Type in all cases: cell-based
[1] = test system: Escherichia coli NIHJ JC-2; settings: NIHJJC2, 10^6 CFU/ml, 37° C., 18-20 hours, pH 7.0
Method: (§1) The above-mentioned minimum inhibitory concentration (MIC; μg/ml) values were determined by the agar dilution method using the medium mentioned below. The inoculum size was one loopful with a viable count of 10^6 CFU/ml. Incubation was performed at 37° C. for 18-20 hours. Medium: glucose 3%, sodium glutamate 0.5%, K2 HPO4 0.05%, MgSO4.7H2 O 0.05%, KCl 0.05%, yeast extract (Difco) 0.05%, Casamino acid 0.02%, agar 1.5% (pH 7.0).

[2] = test system: Proteus vulgaris IFO 3988; settings: IFO3988, 10^6 CFU/ml, 37° C., 18-20 hours, pH 7.0
Method: as §1

[3] = test system: Proteus vulgaris IFO 3045; settings: IFO3045, 10^6 CFU/ml, 37° C., 18-20 hours, pH 7.0
Method: as §1

[4] = test system: Bacillus subtilis PCI 219; settings: PCI219, 10^6 CFU/ml, 37° C., 18-20 hours, pH 7.0
Method: as §1

[5] = test system: Proteus morganii IFO 3168; settings: Morganella morganii, IFO3168, 10^6 CFU/ml, 37° C., 18-20 hours, pH 7.0
Method: as §1

- MIC [1]: 3 to 12 µg/mL (≈ 12.2 to 48.9 µM)
- MIC [2]: 1.6 to 4.8 µg/mL (≈ 6.52 to 19.6 µM)
- MIC [3]: 0.6 to 2.4 µg/mL (≈ 2.45 to 9.79 µM)
- MIC [4]: 6 to 24 µg/mL (≈ 24.5 to 97.9 µM)
- MIC [5]: 3 to 12 µg/mL (≈ 12.2 to 48.9 µM)
Compound: C[C@@H](N)C(=O)NC(C(=O)O)C1CC(O)NC1=O (stereo partly drawn) [D-Alanyl-2-(5-hydroxy-2-oxopyrrolidin-3-yl)glycine]
